Several values for one entry are separate records, joined by “and”; a condition that tells them apart may be missing. Equal entries are not always repeated.
Tests used:
[1] = renal clearance calculated as CLtotal × fe, rat weight 0.25 kg; fixed literature value; cited from earlier work
[2] = test system: active uptake transport of gadoxetate into the liver; assay: Simultaneous PBPK fitting of gadoxetate DCE-MRI data in control and rifampicin phases; type: in vivo, rat; settings: value (CV)
Protocol: DCE–MRI data generated using the 3D Fast Low Angle Shot RF-spoiled gradient echo sequence (FLASH) protocol in male Wistar-Han rats were used for assessing the PBPK IVIVE performances and for obtaining some of the PBPK parameters within the bottom-up and top-down approaches, respectively. The DCE–MRI data were acquired in a multicenter study at two magnetic field strengths, 4.7 and 7 T. Gadoxetate was administered at a dose of 25 μmol/kg, either alone or 1 h after IV administration of 10 mg/kg rifampicin. When gadoxetate was administered alone (control arm), 43 profiles of blood, spleen, and liver measured at a field strength of 4.7 T and 52 profiles of blood, spleen, and liver measured at 7 T were available. In the case of gadoxetate administered with rifampicin, 7 blood, spleen, and liver profiles at a field strength equal to 4.7 T and 6 at 7 T were available. All gadoxetate DCE–MRI data and study protocols are detailed in a companion paper (Hines et al. in submission).
The DCE–MRI data used in this study were reported as ΔR1. Therefore, the relationship between the compartmental concentrations represented by the PBPK model state variables and the ΔR1 measurements for the blood, liver, and spleen needed to be described. The linear relationship in eq 4 is not valid for ΔR1 of the liver, ΔR1,liv, because intracellular and extracellular tissue compartments have different relaxivities. To derive ΔR1,liv, a volume fraction-weighted mean of the contributions of the gadoxetate concentration in all the compartments used to model the liver was performed.[40] In the spleen, the entire distribution space was supposed to have the same relaxivity as blood and, therefore, eq 4 can be applied directly to derive spleen concentrations from ΔR1,spl. Concerning the blood, the blood value for r1 in Table 1 allows ΔR1,b to be directly related to the blood concentration. The relations between ΔR1,liv, ΔR1,spl, and ΔR1,b and the concentrations of the PBPK compartments are shown in eq 7. [drawing 7] 7 cspl,extr is the extracellular concentration in the spleen and Vspl,extr is the extracellular volume of the spleen and Vliv and Vspl are the whole volumes of liver and spleen. r1,liv,extr and r1,spl,extr were assumed to be equal to r1,b, as described in Hines et al.
In fact, each of the data are acquired during a time interval Δt, which was 57 s in the current dataset. To account for this characteristic when performing the parameter estimation, the residuals were calculated as the difference of the observed ΔR1 corresponding to a given time interval minus the mean of the simulated PBPK ΔR1 within the same interval, as explained in the Supporting Information, Section 4.
The extent of interaction with rifampicin was estimated by performing a simultaneous fitting of gadoxetate ΔR1 in the control and inhibitory phase. In this analysis, PS was considered the same for both phases, whereas the other parameters were separately estimated in the absence (CLactive and CLbiliary) and in the presence of rifampicin (CLactive,inh and CLbiliary,inh). CLbiliary,inh was considered to account for possible inhibition of Mrp2 in rat by rifampicin, as previously reported.[45] To understand the impact of the inclusion of the liver-imaging data on the parameter optimization, the simultaneous estimation was also performed considering only the blood data.
All the PBPK analyses were performed in MATLAB R2020a,[50] the ordinary differential equations were solved with the function “ode15s”, while the parameter optimization was performed with the function “lsqnonlin”. The uncertainty of the parameters estimate was evaluated with the case-bootstrap,[51] using 1000 samples.

[3] = gadoxetate 1 h after rifampicin i.v. 10 mg/kg, simultaneous fit
[4] = simultaneous fit, 5-compartment liver model
[5] = with rifampicin, 5-compartment liver model

Question: What does the source list for `CCOc1ccc(C[C@@H](CN(CCN(CC(=O)[O-])CC(=O)[O-])CC(=O)[O-])N(CC(=O)[O-])CC(=O)[O-])cc1.[Gd+3].[H+].[H+]` [gadoxetate]?
Answer: CLr [1]: 0.17 L/h; CLactive, estimated value (with rifampicin) (CLactive,inh) [2, 3]: 0.095 (16.1%) L/h; CLbiliary, estimated value (with rifampicin) (CLbiliary,inh) [2, 3]: 0.08 (16.7%) L/h; CLactive, estimated value (control) ([2]; simultaneous fit of control and rifampicin phases, blood, spleen, liver ΔR1): 2.38 (13.6%) L/h; CLbiliary, estimated value (control) ([2]; simultaneous fit of control and rifampicin phases): 0.07 (3.1%) L/h; PS, blood ΔR1 only ([2]; simultaneous fit using only blood ΔR1, both groups): 2.07 (20 %) L/h; CLactive control group, blood ΔR1 only ([2]; simultaneous fit using only blood ΔR1): 1.82 (30 %) L/h and 1.82 L/h; CLactive control group, 5-compartment liver model [2, 4]: 1.45 (7.4 %) L/h; CLbiliary control group, 5-compartment liver model [2, 4]: 0.07 (3.2 %) L/h; PS, 5-compartment liver model ([2]; simultaneous fit, both groups): 0.81 (7.2 %) L/h; PS, estimated value ([2]; simultaneous fit, same for both phases): 0.71 (5.7%) L/h; CLactive rifampicin group (CLactive,inh), blood ΔR1 only ([2]; with rifampicin 10 mg/kg, simultaneous fit using only blood ΔR1): 0.29 (45 %) L/h and 0.29 L/h; CLactive rifampicin group, 5-compartment liver model [2, 5]: 0.065 (28.2 %) L/h; CLbiliary rifampicin group, 5-compartment liver model [2, 5]: 0.07 (26.6 %) L/h

Reference: publication PMC8397403, “Physiologically Based Pharmacokinetic Modeling of Transporter-Mediated Hepatic Disposition of Imaging Biomarker Gadoxetate in Rats” (Molecular Pharmaceutics, 2021)
